Measured values from patent US9499535B2, “Kinase inhibitors” (ORIGENIS GMBH, priority 2011, dated 2016).

molecular target: T1, SYK kinase (Homo sapiens, UniProt P43405); test: SYK assay (OMNIA Kinase Assay, Invitrogen); format: biochemical; conditions: apparent Ki calculated from the IC50 using the Cheng-Prusoff equation; 1 mM ATP, 10 μM Peptide Substrate; read-out: SYK Activities: Ki
T1 construct: purchased Invitrogen, Carlsbad
Method: In the assay OMNIA® KINASE ASSAY by Invitrogen Corporation (Carlsbad) the effect of invention of a compound on the phosphorylation is determined by measurement of fluorescence intensity of a chelation-enhanced fluorophore called SOX. Upon phosphorylation of the peptide by the kinase of interest, Mg2+ is chelated to form a bridge between the SOX moiety and the phosphate group that is transferred to the specific tyrosine on the peptide. The fluorescence intensity is directly proportional to the amount of peptide phosphorylation.
To the wells of an 384 well small volume plate (Greiner, Frickenhausen) are added (i) the compound under test in 5% DMSO/distilled water (2 μl), (ii) 16 μl of the master mix containing ATP, DTT, Kinase Reaction Buffer, Omina Peptide Substrate Tyr 7 resulting in a final concentration of 1 mM ATP, 0.2 mM DTT and 10 μM Peptide Substrate.
The Master Mix and the assay plate was incubated to reaction temperature before the measurement (30° C.). The reaction was started with addition of (iii) 2 μl 4 μg/ml SYK kinase (Invitrogen, Carlsbad). During measurement fluorescence intensitiy readings were collected using a TECAN M1000 at a wavelength of λex 360/λem 485 nm every 30 s for 30 minutes. The reaction velocity was plotted versus the inhibitor concentration to determine the IC50 using XLFit 5.0 (IDBS, Guildford) to fit to a sigmoidal dose response curve, and the apparent Ki values were calculated from the IC50 using the Cheng-Prusoff equation (Cheng, Y.; Prusoff, W. H. Biochem. Pharmacol. 22, 3099-3108, 1973).

Ki [nM]	Structure (SMILES)
100 to 1000	FC(F)(F)c1cccc(Nc2nc3ccccc3c3c[nH]nc23)c1 [Example #2, (2H-Pyrazolo[3,4-c]quinolin-4-yl)-(3-trifluoromethyl-phenyl)-amine]
100 to 1000	c1ccc2c(c1)nc(Nc1ccc3[nH]ncc3c1)c1n[nH]cc12 [Example #4, (1H-Indazol-5-yl)-(2H-pyrazolo[3,4-c]quinolin-4-yl)-amine]
100 to 1000	c1ccc(Nc2nc3ccccc3c3c[nH]nc23)cc1 [Example #5, Phenyl-(2H-pyrazolo[3,4-c]quinolin-4-yl)-amine]
10 to 100	c1ccc2c(c1)nc(Nc1ccc3cn[nH]c3c1)c1n[nH]cc12 [Example #6, (1H-Indazol-6-yl)-(2H-pyrazolo[3,4-c]quinolin-4-yl)-amine]
100 to 1000	Cc1cc(Nc2nc3ccccc3c3c[nH]nc23)cc2cn[nH]c12 [Example #8, (7-Methyl-1H-indazol-5-yl)-(2H-pyrazolo[3,4-c]quinolin-4-yl)-amine]
100 to 1000	c1ccc2c(c1)nc(Nc1ccc3[nH]cnc3c1)c1n[nH]cc12 [Example #17, (1H-Benzoimidazol-5-yl)-(2H-pyrazolo[3,4-c]quinolin-4-yl)-amine]
100 to 1000	c1ccc2c(c1)nc(Nc1ccc3c(c1)OCO3)c1n[nH]cc12 [Example #22, Benzo[1,3]dioxol-5-yl-(2H-pyrazolo[3,4-c]quinolin-4-yl)-amine]
100 to 1000	c1cncc(Nc2nc3ccccc3c3cn[nH]c23)c1 [Example #23, (3H-Pyrazolo[3,4-c]quinolin-4-yl)-pyridin-3-yl-amine]
100 to 1000	Cn1ncc2ccc(Nc3nc4ccccc4c4c[nH]nc34)cc21 [Example #24, (1-Methyl-1H-indazol-6-yl)-(2H-pyrazolo[3,4-c]quinolin-4-yl)-amine]
100 to 1000	COc1ccc(Nc2nc3ccccc3c3c[nH]nc23)cn1 [Example #25, (6-Methoxy-pyridin-3-yl)-(2H-pyrazolo[3,4-c]quinolin-4-yl)-amine]
100 to 1000	CN1CCN(c2ccc(Nc3nc4ccccc4c4c[nH]nc34)cc2)CC1 [Example #26, [4-(4-Methyl-piperazin-1-yl)-phenyl]-(2H-pyrazolo[3,4-c]quinolin-4-yl)-amine]
100 to 1000	CN1CCCN(c2ccc(Nc3nc4ccccc4c4c[nH]nc34)cc2)CC1 [Example #27, [4-(4-Methyl-[1,4]diazepan-1-yl)-phenyl]-(2H-pyrazolo[3,4-c]quinolin-4-yl)-amine]
100 to 1000	c1ccc(Nc2nc3ccccc3c3cn[nH]c23)nc1 [Example #28, (3H-Pyrazolo[3,4-c]quinolin-4-yl)-pyridin-2-yl-amine]
100 to 1000	c1ccc2cc(Nc3nc4ccccc4c4cn[nH]c34)ncc2c1 [Example #30, Isoquinolin-3-yl-(3H-pyrazolo[3,4-c]quinolin-4-yl)-amine]
100 to 1000	COc1ccc2nc(Nc3ccc4[nH]ccc4c3)c3[nH]ncc3c2c1 [Example #72, (1H-Indol-5-yl)-(8-methoxy-3H-pyrazolo[3,4-c]quinolin-4-yl)-amine]
100 to 1000	COc1ccc2nc(Nc3ccc4cc[nH]c4c3)c3[nH]ncc3c2c1 [Example #75, (1H-Indol-6-yl)-(8-methoxy-3H-pyrazolo[3,4-c]quinolin-4-yl)-amine]
100 to 1000	c1ccc2c(c1)nc(Nc1ccc3[nH]ccc3c1)c1n[nH]cc12 [Example #82, (1H-Indol-5-yl)-(2H-pyrazolo[3,4-c]quinolin-4-yl)-amine]
10 to 100	c1cc2c(cn1)nc(Nc1ccc3cn[nH]c3c1)c1n[nH]cc12 [Example #91, (1H-Indazol-6-yl)-(2H-2,3,5,7-tetraaza-cyclopenta[a]naphthalen-4-yl)-amine]
100 to 1000	COc1ccc2nc(Nc3ccc4c(O)ncnc4c3)c3[nH]ncc3c2c1 [Example #110, 7-(8-Methoxy-3H-pyrazolo[3,4-c]quinolin-4-ylamino)-quinazolin-4-ol]

Continued, compound first:

Structure (SMILES)	Ki [nM]
COc1ccc2nc(Nc3cc(C)c4[nH]ncc4c3)c3n[nH]cc3c2c1 [Example #10, (8-Methoxy-2H-pyrazolo[3,4-c]quinolin-4-yl)-(7-methyl-1H-indazol-5-yl)-amine]	10 to 100
Cn1ncc2ccc(Nc3nc4ccc(Br)cc4c4c[nH]nc34)cc21 [Example #35, (8-Bromo-2H-pyrazolo[3,4-c]quinolin-4-yl)-(1-methyl-1H-indazol-6-yl)-amine]	100 to 1000
COc1cccc(Nc2nc3ccc(OC)cc3c3c[nH]nc23)c1 [Example #60, (3-Methoxy-phenyl)-(8-methoxy-2H-pyrazolo[3,4-c]quinolin-4-yl)-amine]	10 to 100
COc1ccc2nc(Nc3cccc(N(C)C)c3)c3n[nH]cc3c2c1 [Example #76, N-(8-Methoxy-2H-pyrazolo[3,4-c]quinolin-4-yl)-N′,N′-dimethyl-benzene-1,3-diamine]	100 to 1000
COc1ccc2nc(Nc3ccc(N4CCCC4)cc3)c3n[nH]cc3c2c1 [Example #79, (8-Methoxy-2H-pyrazolo[3,4-c]quinolin-4-yl)-(4-pyrrolidin-1-yl-phenyl)-amine]	100 to 1000
Brc1ccc2nc(Nc3ccc(N4CCCCC4)cc3)c3n[nH]cc3c2c1 [Example #83, (8-Bromo-2H-pyrazolo[3,4-c]quinolin-4-yl)-(4-piperidin-1-yl-phenyl)-amine]	100 to 1000
COc1ccc2nc(Nc3ccc4[nH]ncc4c3)c3n[nH]cc3c2n1 [Example #90, (1H-Indazol-5-yl)-(8-methoxy-2H-2,3,5,9-tetraaza-cyclopenta[a]naphthalen-4-yl)-amine]	100 to 1000
Brc1ccc2nc(Nc3ccc4[nH]ccc4c3)c3n[nH]cc3c2c1 [Example #99, (8-Bromo-2H-pyrazolo[3,4-c]quinolin-4-yl)-(1H-indol-5-yl)-amine]	100 to 1000
COc1ccc(Nc2nc3cccnc3c3c[nH]nc23)cc1OC [Example #123, (3,4-Dimethoxy-phenyl)-(2H-2,3,5,9-tetraaza-cyclopenta[a]naphthalen-4-yl)-amine]	10 to 100
COc1ccc2nc(Nc3nnc(C4CC4)[nH]3)c3n[nH]cc3c2c1 [Example #141, (5-Cyclopropyl-4H-[1,2,4]triazol-3-yl)-(8-methoxy-2H-pyrazolo[3,4-c]quinolin-4-yl)-amine]	100 to 1000
COc1ccc2nc(Nc3ccc4c(c3)COCO4)c3n[nH]cc3c2c1 [Example #146, (4H-Benzo[1,3]dioxin-6-yl)-(8-methoxy-2H-pyrazolo[3,4-c]quinolin-4-yl)-amine]	100 to 1000
COc1ccc2nc(Nc3cc(C)ccn3)c3n[nH]cc3c2c1 [Example #154, (8-Methoxy-2H-pyrazolo[3,4-c]quinolin-4-yl)-(4-methyl-pyridin-2-yl)-amine]	100 to 1000
COc1ccc2nc(Nc3cc(C)cc(C)n3)c3n[nH]cc3c2c1 [Example #156, (4,6-Dimethyl-pyridin-2-yl)-(8-methoxy-2H-pyrazolo[3,4-c]quinolin-4-yl)-amine]	100 to 1000
COc1ccc2nc(Nc3nc(C)cs3)c3n[nH]cc3c2c1 [Example #157, (8-Methoxy-2H-pyrazolo[3,4-c]quinolin-4-yl)-(4-methyl-thiazol-2-yl)-amine]	100 to 1000
COc1ccc2nc(Nc3nc4c(s3)CCCC4)c3n[nH]cc3c2c1 [Example #158, (8-Methoxy-2H-pyrazolo[3,4-c]quinolin-4-yl)-(4,5,6,7-tetrahydro-benzothiazol-2-yl)-amine]	100 to 1000
